Paper PMC6207370 (Xenobiotica; the fate of foreign compounds in biological …, 2017)
Like-named read-outs stand apart in the source and are kept apart here.

Columns and labels:
[1] = format: in vitro ADME
[2] = Incubations with rat hepatic S9; conditions: rat
[3] = Incubations with human hepatic S9; conditions: for CLint scaled at 1 μM: both, human
[4] = Incubations with mouse hepatic S9
[5] = Incubations with minipig hepatic S9
[6] = Incubations with guinea pig hepatic S9; conditions: guinea pig hepatic S9
[7] = Incubations with rhesus monkey hepatic S9; conditions: rhesus monkey hepatic S9
[8] = Incubations with cynomolgus monkey hepatic S9; conditions: cynomolgus monkey hepatic S9
[9] = method B (eq. 5), values > 1 assumed equal to 1

In the case of `CCN(C(C)=O)c1cccc(-c2ccnc3c(C#N)cnn23)c1` [Zaleplon, zaleplon], the “Fm,AO, across species” value ([1]; cynomolgus monkey, rhesus monkey, and guinea pig S9) is reported as 0.42–0.70, the “Fm,AO, across species” value ([1]; mouse and minipig S9) is reported as no more than 0.22 and the CLint scaled at 1 μM ([2]; male, Sprague-Dawley, s9, pH 7.4, CLint (intrinsic clearance) in hepatic S9, rat hepatic S9, in the presence of NADPH, Table 1, triplicate, 2–3 experiments) is reported as 15.6 ± 3.05 mL/min/kg. For the same molecule, the “CLHEP (hepatic clearance)” value ([2]; well-stirred model from S9 CLint (+NADPH), uncorrected for fraction unbound) was 12.7 ± 2.10 mL/min/kg, the CLint scaled at 1 μM ([3]; s9, pH 7.4, CLint (intrinsic clearance) in hepatic S9, human hepatic S9, in the presence of NADPH, Table 1, triplicate, 2–3 experiments) was 5.8 ± 1.02 mL/min/kg and the CLint scaled at 1 μM ([3]; s9, pH 7.4, CLint −NADPH, human hepatic S9 without NADPH) was 3.96 ± 1.35 mL/min/kg. The “Fm,AO Method A (fraction metabolized by AO)” value ([3]; human hepatic S9, method A (eq. 4)) was 1, the “Fm,AO Method B (fraction metabolized by AO)” value ([3]; human hepatic S9, method B (eq. 5), values > 1 assumed equal to 1) was 0.71 and the “Fm,AO (fraction metabolized by AO)” value ([3]; human hepatic S9, methods A and B taken together (data from Table 3)) was no less than 0.71. For the same molecule, the CLint scaled at 1 μM ([4]; male, CD-1, mouse, s9, pH 7.4, CLint (intrinsic clearance) in hepatic S9, mouse hepatic S9, in the presence of NADPH, Table 1, triplicate, 2–3 experiments) was 24.4 ± 5.28 mL/min/kg, the “Fm,AO Method A (fraction metabolized by AO)” value ([4]; mouse hepatic S9, method A (eq. 4)) was 0.22 and the “Fm,AO Method B (fraction metabolized by AO)” value ([4]; mouse hepatic S9, method B (eq. 5), values > 1 assumed equal to 1) was 0. For the same molecule, the CLint scaled at 1 μM ([5]; male, Gottingen, minipig, s9, pH 7.4, CLint (intrinsic clearance) in hepatic S9, minipig hepatic S9, in the presence of NADPH, Table 1, triplicate, 2–3 experiments) was 5.55 ± 1.34 mL/min/kg, the “Fm,AO Method A (fraction metabolized by AO)” value ([5]; minipig hepatic S9, method A (eq. 4)) was 0.17 and the “Fm,AO Method B (fraction metabolized by AO)” value ([5]; minipig hepatic S9, method B (eq. 5), values > 1 assumed equal to 1) was 0. For the same molecule, the “Fm,AO (fraction metabolized by AO)” value ([5]; minipig hepatic S9, methods A and B taken together) was no more than 0.17, the “Fm,AO Method A (fraction metabolized by AO)” value ([6]; method A (eq. 4)) was 1 and the “Fm,AO Method B (fraction metabolized by AO)” value [6, 9] was 0.50. For the same molecule, the “Fm,AO Method A (fraction metabolized by AO)” value ([7]; method A (eq. 4)) was 0.42, the “Fm,AO Method B (fraction metabolized by AO)” value [7, 9] was 0.65 and the “Fm,AO Method A (fraction metabolized by AO)” value ([8]; method A (eq. 4)) was 1. The “Fm,AO Method B (fraction metabolized by AO)” value [8, 9] was 0.70.
